Data as given in US5157052A, “Method for inhibiting IgE production” (priority 1990, dated 1992).

How the values were obtained:
[1] = test system: leukocyte membrane proteins; experiment: Cell surface density or distribution of leukocyte membrane proteins, overall; assay type: in vivo, mouse (Balb/c female)
[2] = test system: IL-2 receptor; experiment: Splenocyte cell surface density/distribution (FACS): IL-2 receptor; assay type: in vivo, mouse (Balb/c female)
Description: Another (Group B) is injected with 20 μg (±) methyl 11α,16-dihydroxy-16-methyl-9-oxoprosta-5Z,13E-dien-1-oate as in Example 13. […] A 3 cm incision is made with a scalpel above the left hip, and the spleen is cut free from adjoining tissue and placed in a 100 mn plastic culture dish containing 10 ml PBS. The splenic cells are then made into a suspension, by rubbing the spleens between the rough, frosted ends of microscope slides repeatedly until the only remaining particulate matter is connective tissue. Cells are transferred to a 15 ml conical polystyrene tube and centrifuged in a centrifuge at 1200 rpm for 5 minutes. The supernatant is discarded by aspiration and the cell pellet is resuspended in 10 ml PBS, then centrifuged at 1200 rpm for 5 minutes. The supernatant is aspirated and the cell pellet is resuspended in 15 mM Tris, 140 mM Ammonium Chloride, to lyse red blood cells. After incubating at room temperature for 10 minutes the cell suspension is centrifuged at 1200 rpm for 10 minutes. The supernatant is discarded and the cell pellet is resuspended in 10 ml FACS Buffer (PBS containing 0.1% BSA and 0.1% Sodium Azide). The cell suspension is filtered through sterile glass wool plugged in the top of a pasteur pipet. Cells in the flow through are counted using a hemacytometer, then the cell suspension is centrifuged at 1200 rpm for 5 minutes. The supernatant is discarded and the cell pellet is resuspended in a volume of FACS Buffer that will yield 4×10^7 cells/ml. 10 μl (4×10^5 cells) is added to each well of a 96-well V-bottom plate. 25 μl of diluted monoclonal antibody directed against splenocyte cell surface proteins is added to each well: Major Histocompatability Complex (MHC) Class II (M5114, ATCC, Rockville Md.), MHC Class I (M1/42, ATCC), Anti-IgD (JA12.5, ATCC, Rockville, Md.), Thymocyte (Thy)-1 (JIJ, ATCC), B220 (14.8, ATCC), Kappa light chain (187, ATCC), IL-2 Receptor (7D4, ATCC), Lyt-1 (7.313, ATCC) and CD23 (biotinylated B3B4) and incubated on ice for 30 minutes. 100 μl 10% BSA 0.1% sodium azide is added to each well, then the plates are centrifuged at 1200 rpm for 10 minutes. The liquid is removed by aspiration and the cell pellets are resuspended in 100 μl FACS Buffer, and centrifuged at 1200 rpm for 5 minutes. […] Samples are transferred to individual tubes and 10,000 cells are analyzed. Using the Lysis software (Becton Dickinson, Mountain View, Calif.) the mean channel log fluorescence and percent positive cells are determined for the entire cell population. […]

Question: Which results are given for CCCCC(C)(O)C/C=C/[C@H]1[C@H](O)CC(=O)[C@@H]1C/C=C\CCCC(=O)OC (mixture of isomers) [(±) methyl 11α,16-dihydroxy-16-methyl-9-oxoprosta-5Z,13E-dien-1-oate]?
Answer: cell surface density and distribution ([1]; anti-IgD stimulated mice, 20 μg days 3 and 4, day 7): identical cell surface density and distribution as the PBS treated group; cell surface density and distribution ([1]; unstimulated mice, 20 μg): does not effect basal cell surface density or distribution of leukocyte membrane proteins; Percentage Positive Cells ([2]; anti-IgD stimulated mice, 20 μg days 3 and 4, day 7 (PBS 18.4)): 23 ± 7.7%; Mean Channel Log Fluorescence ([2]; anti-IgD stimulated mice, 20 μg days 3 and 4, day 7 (PBS 101)): 97 ± 1.5; Percentage Positive Cells ([2]; unstimulated mice, 20 μg (PBS 2.4)): 2.7 ± 0.3%; Mean Channel Log Fluorescence ([2]; unstimulated mice, 20 μg (PBS 98)): 96 ± 1
